In patent publication US12052991B2, “Substituted pyridinyloxybenzenes and salts thereof and use thereof as herbicidal agents” (Bayer Aktiengesellschaft, priority 2018, dated 2024):

Columns and labels:
Format in all cases: in vivo
[1] = test system: Veronica persica (VERPE); assay: Herbicidal pre-emergence action, test C (Table C12); settings: visual scoring vs untreated controls
Excerpt: (§1) Seeds of mono- and dicotyledonous weed plants were placed in plastic pots in sandy loam soil (doubly sown with one species each of mono- or dicotyledonous weed plants per pot) and covered with soil. The compounds of the invention, formulated in the form of wettable powders (WP) or as emulsion concentrates (EC), were then applied onto the surface of the covering soil as aqueous suspension or emulsion with addition of 0.5% additive at a water application rate of 600 liters per hectare (converted). After the treatment, the pots were placed in a greenhouse and kept under good growth conditions for the test plants. After about 3 weeks, the effect of the preparations was scored visually in comparison with untreated controls as percentages. For example, 100% activity=the plants have died, 0% activity=like control plants. Tables C1 to C12 below show the effects of selected compounds of the general formula (I) according to Table 1 on various harmful plants and an application rate corresponding to 1280 or 320 g/ha, which were obtained by the experimental procedure mentioned above.

[2] = test system: Poa annua (POAAN); assay: Herbicidal post-emergence action (Table B3); settings: rated visually after about 3 weeks, 100% = plants have died, 0% = like control plants
Procedure: (§2) Seeds of mono- and dicotyledonous weed plants were placed in plastic pots in sandy loam soil (doubly sown with in each case one species of mono- or dicotyledonous weed plants per pot), covered with soil and cultivated in a greenhouse under controlled growth conditions. 2 to 3 weeks after sowing, the test plants were treated at the one-leaf stage. The compounds of the invention, formulated in the form of wettable powders (WP) or as emulsion concentrates (EC), were applied onto the green parts of the plants as aqueous suspension or emulsion with addition of 0.5% additive at a water application rate of 600 liters per hectare (converted). After the test plants had been kept in the greenhouse under optimum growth conditions for about 3 weeks, the activity of the preparations was rated visually in comparison to untreated controls. For example, 100% activity=the plants have died, 0% activity=like control plants. Tables B1 to B12 below show the effects of selected compounds of the general formula (I) according to Table 1 on various harmful plants and an application rate corresponding to 1280 or 320 g/ha, which were obtained by the experimental procedure mentioned above.

[3] = test system: Stellaria media (STEME); assay: Herbicidal post-emergence action (Table B8); settings: visual rating about 3 weeks after treatment, 100% = plants have died, 0% = like control plants
Procedure: as §2

[4] = test system: Abutilon theophrasti (ABUTH); assay: Herbicidal post-emergence action (Table B5); settings: rated visually after about 3 weeks, 100% = plants have died, 0% = like control plants
Procedure: as §2

[5] = test system: Digitaria sanguinalis (DIGSA); assay: Herbicidal post-emergence action (Table B10); settings: dosage 1280 g/ha; visual rating about 3 weeks after treatment; 100% = plants have died, 0% = like control plants
Procedure: as §2

[6] = test system: Amaranthus retroflexus (AMARE); assay: Herbicidal pre-emergence action, test C (Table C6); settings: visual scoring after about 3 weeks, 100% = plants have died, 0% = like control plants
Excerpt: as §1

[7] = test system: Digitaria sanguinalis (DIGSA); assay: Herbicidal pre-emergence action, test C (Table C10); settings: dosage 1280 g/ha; visual scoring after about 3 weeks; 100% = plants have died, 0% = like control plants
Excerpt: as §1

[8] = test system: harmful plants ABUTH, AMARE, ECHCG, LOLRI, MATIN, POAAN, SETVI, STEME, ALOMY, DIGSA, KCHSC and VERPE; assay: Herbicidal pre-emergence action (test C), summary of Tables C1-C12; settings: application rate of 1280 or 320 g of active ingredient per hectare; summary in words
Excerpt: as §1, with “percentages.” for “percentages. For example, 100% activity=the plants have died, 0% activity=like control plants. Tables C1 to C12 below show the effects of selected compounds of the general formula (I) according to Table 1 on various harmful plants and an application rate corresponding to 1280 or 320 g/ha, which were obtained by the experimental procedure mentioned above.”
(§3) For example, 100% activity=the plants have died, 0% activity=like control plants.
Tables C1 to C12 below show the effects of selected compounds of the general formula (I) according to Table 1 on various harmful plants and an application rate corresponding to 1280 or 320 g/ha, which were obtained by the experimental procedure mentioned above.
As the results of Tables C1-C12 show, compounds no.

[9] = test system: Veronica persica (VERPE); assay: Herbicidal post-emergence action (Table B12); settings: visual rating about 3 weeks after treatment, 100% = plants have died, 0% = like control plants
Procedure: as §2

[10] = test system: Amaranthus retroflexus (AMARE); assay: Herbicidal post-emergence action (Table B6); settings: visual rating about 3 weeks after treatment, 100% = plants have died, 0% = like control plants
Procedure: as §2

[11] = test system: Stellaria media (STEME); assay: Herbicidal pre-emergence action, test C (Table C8); settings: visual scoring after about 3 weeks, 100% = plants have died, 0% = like control plants
Excerpt: as §1

[12] = test system: Alopecurus myosuroides (ALOMY); assay: Herbicidal pre-emergence action, test C (Table C9); settings: dosage 1280 g/ha; visual scoring after about 3 weeks; 100% = plants have died, 0% = like control plants
Excerpt: as §1

[13] = test system: Setaria viridis (SETVI); assay: Herbicidal pre-emergence action, test C (Table C4); settings: dosage 1280 g/ha; visual scoring after about 3 weeks; 100% = plants have died, 0% = like control plants
Excerpt: as §1

[14] = test system: Poa annua (POAAN); assay: Herbicidal pre-emergence action, test C (Table C3); settings: visual scoring after about 3 weeks, 100% = plants have died, 0% = like control plants
Excerpt: as §1

[15] = test system: harmful plants ABUTH, AMARE, ECHCG, LOLRI, MATIN, POAAN, SETVI, STEME, ALOMY, DIGSA, KCHSC and VERPE; assay: Herbicidal post-emergence action, summary of Tables B1-B12; settings: application rate of 1280 or 320 g of active ingredient per hectare; summary in words
Procedure: as §2, with “controls.” for “controls. For example, 100% activity=the plants have died, 0% activity=like control plants. Tables B1 to B12 below show the effects of selected compounds of the general formula (I) according to Table 1 on various harmful plants and an application rate corresponding to 1280 or 320 g/ha, which were obtained by the experimental procedure mentioned above.”
as §3
Tables B1 to B12 below show the effects of selected compounds of the general formula (I) according to Table 1 on various harmful plants and an application rate corresponding to 1280 or 320 g/ha, which were obtained by the experimental procedure mentioned above.
As the results of Tables B1-B12 show, compounds no.

[16] = test system: Bassia scoparia (KCHSC); assay: Herbicidal post-emergence action (Table B11); settings: visual rating about 3 weeks after treatment, 100% = plants have died, 0% = like control plants
Procedure: as §2

[17] = test system: Matricaria inodora (MATIN); assay: Herbicidal pre-emergence action, test C (Table C7); settings: dosage 1280 g/ha; visual scoring after about 3 weeks; 100% = plants have died, 0% = like control plants
Excerpt: as §1

[18] = test system: Echinochloa crus-galli (ECHCG); assay: Herbicidal post-emergence action (Table B1); settings: rated visually after about 3 weeks, 100% = plants have died, 0% = like control plants
Procedure: as §2

[19] = test system: Abutilon theophrasti (ABUTH); assay: Herbicidal pre-emergence action, test C (Table C5); settings: visual scoring after about 3 weeks, 100% = plants have died, 0% = like control plants
Excerpt: as §1

[20] = test system: Alopecurus myosuroides (ALOMY); assay: Herbicidal post-emergence action (Table B9); settings: rated visually after about 3 weeks, 100% = plants have died, 0% = like control plants
Procedure: as §2

Row | Compound | Pre-emergence action against Veronica persica (VERPE) ([1]; dosage 1280 g/ha) [%] | Post-emergence action against Poa annua (POAAN) ([2]; 320 g/ha) [%] | Post-emergence action against Poa annua (POAAN) ([2]; 1280 g/ha) [%] | Post-emergence action against Stellaria media (STEME) ([3]; dosage 320 g/ha) [%] | Post-emergence action against Stellaria media (STEME) ([3]; dosage 1280 g/ha) [%] | Post-emergence action against Abutilon theophrasti (ABUTH) ([4]; 1280 g/ha) [%] | Post-emergence action against Digitaria sanguinalis (DIGSA) [5] [%] | Pre-emergence action against Amaranthus retroflexus (AMARE) ([6]; dosage 1280 g/ha) [%] | Pre-emergence action against Digitaria sanguinalis (DIGSA) [7] [%] | herbicidal activity against the harmful plants of Tables C1-C12 in pre-emergence treatment [8] | Post-emergence action against Veronica persica (VERPE) ([9]; dosage 320 g/ha) [%] | Post-emergence action against Veronica persica (VERPE) ([9]; dosage 1280 g/ha) [%] | Post-emergence action against Amaranthus retroflexus (AMARE) ([10]; dosage 1280 g/ha) [%] | Pre-emergence action against Stellaria media (STEME) ([11]; dosage 320 g/ha) [%] | Pre-emergence action against Stellaria media (STEME) ([11]; dosage 1280 g/ha) [%] | Pre-emergence action against Alopecurus myosuroides (ALOMY) [12] [%] | Pre-emergence action against Setaria viridis (SETVI) [13] [%] | Pre-emergence action against Poa annua (POAAN) ([14]; dosage 1280 g/ha) [%] | herbicidal activity against the harmful plants of Tables B1-B12 in post-emergence treatment [15] | Pre-emergence action against Matricaria inodora (MATIN) [17] [%] | other results
1 | FC(F)c1cc(-c2c(Oc3ccc(Cl)cn3)cccc2C2CC2)on1 [Example 1-77] | 100 | 100 | 100 | 100 | 100 | 90 | 100 | 100 | 100 | very good herbicidal activity | 100 | 100 | 100 | 100 | 100 | 100 | 100 | 100 | very good herbicidal activity | – | Pre-emergence action against Veronica persica (VERPE) ([1]; dosage 320 g/ha): 90%; Pre-emergence action against Amaranthus retroflexus (AMARE) ([6]; dosage 320 g/ha): 90%
2 | Cc1ccc(-c2cc(C(F)F)no2)c(Oc2ccc(Cl)cn2)c1 [Example 1-26] | 90 | 100 | 100 | – | 100 | 100 | 90 | – | 90 | very good herbicidal activity | – | 100 | 100 | 100 | 100 | 90 | 90 | 100 | very good herbicidal activity | 100 | Post-emergence action against Abutilon theophrasti (ABUTH) ([4]; 320 g/ha): 90%; Post-emergence action against Bassia scoparia (KCHSC) ([16]; dosage 320 g/ha): 90%; Post-emergence action against Bassia scoparia (KCHSC) ([16]; dosage 1280 g/ha): 100%; Post-emergence action against Echinochloa crus-galli (ECHCG) ([18]; 320 g/ha): 100%; Post-emergence action against Echinochloa crus-galli (ECHCG) ([18]; 1280 g/ha): 100%; Pre-emergence action against Abutilon theophrasti (ABUTH) ([19]; dosage 1280 g/ha): 90%; Post-emergence action against Alopecurus myosuroides (ALOMY) ([20]; 320 g/ha): 100%; Post-emergence action against Alopecurus myosuroides (ALOMY) ([20]; 1280 g/ha): 100%; Pre-emergence action against Poa annua (POAAN) ([14]; dosage 320 g/ha): 90%
3 | Cc1ccnc(-c2ccccc2Oc2ccc(Cl)cn2)c1 [Example 1-81] | 100 | – | 90 | – | 100 | 90 | – | 100 | 100 | very good herbicidal activity | 100 | 100 | 100 | – | 100 | 90 | – | 100 | very good herbicidal activity | 90 | Pre-emergence action against Abutilon theophrasti (ABUTH) ([19]; dosage 320 g/ha): 100%; Pre-emergence action against Abutilon theophrasti (ABUTH) ([19]; dosage 1280 g/ha): 100%
4 | CCc1ccc(Oc2cccc(CC)c2-c2cc(C(F)F)no2)nc1 [Example 1-60] | 100 | 90 | 100 | 100 | 100 | 90 | 100 | 100 | 100 | very good herbicidal activity | 100 | 100 | 100 | 100 | 100 | – | 100 | 100 | very good herbicidal activity | 100 | Post-emergence action against Bassia scoparia (KCHSC) ([16]; dosage 1280 g/ha): 100%; Post-emergence action against Amaranthus retroflexus (AMARE) ([10]; dosage 320 g/ha): 100%; Post-emergence action against Alopecurus myosuroides (ALOMY) ([20]; 320 g/ha): 100%; Post-emergence action against Alopecurus myosuroides (ALOMY) ([20]; 1280 g/ha): 100%
